# Measurements as given in PubChem BioAssay AID2060887 (Molecular Pharmacology Branch, DTP, NCI, 2025).
# System: 782815-120-R-J1-PDC complex spheroid viability
# Experiment: Anticancer human tumor 782815-120-R-J1-PDC patient-derived colon adenocarcinoma cell line growth inhibition [RAS]
# Conditions: for IC50: curve of first compound; for viability, T/C: stronger effect = lower value
# Procedure, shortened: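 Multi-cell-type spheroids: tumor cells plus HUVEC endothelial cells and mesenchymal stem cells. RAS-pathway inhibitors were combined with targeted agents, each dosed in half-log steps down from clinical Cmax, or from 10 microM when Cmax was unknown.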
# [1] = second compound 0.000949 µM, first compound 0.0316 µM
# [2] = second compound 0.000949 µM, first compound 0.1 µM
# [3] = second compound 0.000949 µM, first compound 0.316 µM
# [4] = second compound 0.000949 µM, first compound 1 µM
# [5] = second compound 0.000949 µM, first compound 3.16 µM
# [6] = second compound 0.000949 µM, first compound 10 µM
# [7] = second compound 0.003 µM, first compound 0.0316 µM
# [8] = second compound 0.003 µM, first compound 0.1 µM
# [9] = second compound 0.003 µM, first compound 0.316 µM
# [10] = second compound 0.003 µM, first compound 1 µM
# [11] = second compound 0.003 µM, first compound 3.16 µM
# [12] = second compound 0.003 µM, first compound 10 µM
# [13] = second compound 0.00949 µM, first compound 0.0316 µM
# [14] = second compound 0.00949 µM, first compound 0.1 µM
# [15] = second compound 0.00949 µM, first compound 0.316 µM
# [16] = second compound 0.00949 µM, first compound 1 µM
# [17] = second compound 0.00949 µM, first compound 3.16 µM
# [18] = second compound 0.00949 µM, first compound 10 µM
# [19] = second compound 0.03 µM, first compound 0.0316 µM
# [20] = second compound 0.03 µM, first compound 0.1 µM
# [21] = second compound 0.03 µM, first compound 0.316 µM
# [22] = second compound 0.03 µM, first compound 1 µM
# [23] = second compound 0.03 µM, first compound 3.16 µM
# [24] = second compound 0.03 µM, first compound 10 µM
# [25] = second compound 0.0949 µM, first compound 0.0316 µM
# [26] = second compound 0.0949 µM, first compound 0.1 µM
# [27] = second compound 0.0949 µM, first compound 0.316 µM
# [28] = second compound 0.0949 µM, first compound 1 µM
# [29] = second compound 0.0949 µM, first compound 3.16 µM
# [30] = second compound 0.0949 µM, first compound 10 µM
# [31] = second compound 0.3 µM, first compound 0.0316 µM
# [32] = second compound 0.3 µM, first compound 0.1 µM
# [33] = second compound 0.3 µM, first compound 0.316 µM
# [34] = second compound 0.3 µM, first compound 1 µM
# [35] = second compound 0.3 µM, first compound 3.16 µM
# [36] = second compound 0.3 µM, first compound 10 µM
# 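Further: spheroids exposed to compounds for 7 days before reading.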
# 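Wherever viability, T/C is given: 100% = DMSO vehicle control viability.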
structure (smiles),measurement,setting,value
CC(=O)OC12COC1CC(O)C1(C)C(=O)C(O)C3=C(C)C(OC(=O)C(O)C(NC(=O)OC(C)(C)C)c4ccccc4)CC(O)(C(OC(=O)c4ccccc4)C21)C3(C)C (stereo unspecified) + CCn1c(-c2cc(N3CCN(C)CC3)cnc2C(C)OC)c2c3cc(ccc31)-c1csc(n1)CC(NC(=O)C1CC1C)C(=O)N1CCCC(N1)C(=O)OCC(C)(C)C2,IC50,second compound 0.000949 µM,< 31.6 nM
same,IC50,second compound 0.003 µM,< 31.6 nM
same,IC50,second compound 0.00949 µM,< 31.6 nM
same,IC50,second compound 0.03 µM,< 31.6 nM
same,IC50,second compound 0.0949 µM,< 31.6 nM
same,IC50,second compound 0.3 µM,< 31.6 nM
same,"viability, T/C",[1],26%
same,"viability, T/C",[2],27.8%
same,"viability, T/C",[3],23.1%
same,"viability, T/C",[4],28.1%
same,"viability, T/C",[5],27.1%
same,"viability, T/C",[6],32.5%
same,"viability, T/C",[7],25.8%
same,"viability, T/C",[8],24.6%
same,"viability, T/C",[9],23.2%
same,"viability, T/C",[10],22%
same,"viability, T/C",[11],21.3%
same,"viability, T/C",[12],25.7%
same,"viability, T/C",[13],19.1%
same,"viability, T/C",[14],16.4%
same,"viability, T/C",[15],15.1%
same,"viability, T/C",[16],16.4%
same,"viability, T/C",[17],19.1%
same,"viability, T/C",[18],16.1%
same,"viability, T/C",[19],12.5%
same,"viability, T/C",[20],13.5%
same,"viability, T/C",[21],13.3%
same,"viability, T/C",[22],13.3%
same,"viability, T/C",[23],14.8%
same,"viability, T/C",[24],13.3%
same,"viability, T/C",[25],12.6%
same,"viability, T/C",[26],12.4%
same,"viability, T/C",[27],10.3%
same,"viability, T/C",[28],12.2%
same,"viability, T/C",[29],11.3%
same,"viability, T/C",[30],11.3%
same,"viability, T/C",[31],13%
same,"viability, T/C",[32],12.6%
same,"viability, T/C",[33],9.92%
same,"viability, T/C",[34],9.28%
same,"viability, T/C",[35],10.9%
same,"viability, T/C",[36],13%
NC1c2ccccc2OC12CCN(c1cnc3c(N4CCCc5ncccc54)n[nH]c3n1)CC2 (stereo unspecified) + CCn1c(-c2cc(N3CCN(C)CC3)cnc2C(C)OC)c2c3cc(ccc31)-c1csc(n1)CC(NC(=O)C1CC1C)C(=O)N1CCCC(N1)C(=O)OCC(C)(C)C2,IC50,second compound 0.000949 µM,> 10000 nM
same,IC50,second compound 0.003 µM,1660 nM
same,IC50,second compound 0.00949 µM,< 31.6 nM
same,IC50,second compound 0.03 µM,< 31.6 nM
same,IC50,second compound 0.0949 µM,< 31.6 nM
same,IC50,second compound 0.3 µM,< 31.6 nM
same,"viability, T/C",[1],74.5%
same,"viability, T/C",[2],74.1%
same,"viability, T/C",[3],73.3%
same,"viability, T/C",[4],67.9%
same,"viability, T/C",[5],78.7%
same,"viability, T/C",[6],67.8%
same,"viability, T/C",[7],50.3%
same,"viability, T/C",[8],53.9%
same,"viability, T/C",[9],56.5%
same,"viability, T/C",[10],47.6%
same,"viability, T/C",[11],49.1%
same,"viability, T/C",[12],44%
same,"viability, T/C",[13],26.1%
same,"viability, T/C",[14],33.1%
same,"viability, T/C",[15],23.6%
same,"viability, T/C",[16],23.7%
same,"viability, T/C",[17],24.4%
same,"viability, T/C",[18],21.2%
same,"viability, T/C",[19],15.9%
same,"viability, T/C",[20],17.1%
same,"viability, T/C",[21],18.2%
same,"viability, T/C",[22],16.2%
same,"viability, T/C",[23],18.7%
same,"viability, T/C",[24],14.6%
same,"viability, T/C",[25],16.4%
same,"viability, T/C",[26],17.4%
same,"viability, T/C",[27],18.8%
same,"viability, T/C",[28],20.6%
same,"viability, T/C",[29],18.8%
same,"viability, T/C",[30],13.6%
same,"viability, T/C",[31],16.4%
same,"viability, T/C",[32],15.7%
same,"viability, T/C",[33],17.6%
same,"viability, T/C",[34],16.4%
same,"viability, T/C",[35],19.1%
same,"viability, T/C",[36],11.8%
Nc1ccn(C2OC(CO)C(O)C2(F)F)c(=O)n1 (stereo unspecified) + CCn1c(-c2cc(N3CCN(C)CC3)cnc2C(C)OC)c2c3cc(ccc31)-c1csc(n1)CC(NC(=O)C1CC1C)C(=O)N1CCCC(N1)C(=O)OCC(C)(C)C2,IC50,second compound 0.000949 µM,20.7 nM
same,IC50,second compound 0.003 µM,12.7 nM
same,IC50,second compound 0.00949 µM,< 3.16 nM
same,IC50,second compound 0.03 µM,< 3.16 nM
same,IC50,second compound 0.0949 µM,< 3.16 nM
same,IC50,second compound 0.3 µM,< 3.16 nM
same,"viability, T/C","second compound 0.000949 µM, first compound 0.00316 µM",74%
same,"viability, T/C","second compound 0.000949 µM, first compound 0.01 µM",53.4%
same,"viability, T/C",[1],48.6%
same,"viability, T/C",[2],35.9%
same,"viability, T/C",[3],28.4%
same,"viability, T/C",[4],23.6%
same,"viability, T/C","second compound 0.003 µM, first compound 0.00316 µM",60.9%
same,"viability, T/C","second compound 0.003 µM, first compound 0.01 µM",51.7%
same,"viability, T/C",[7],40%
same,"viability, T/C",[8],25%
same,"viability, T/C",[9],25.5%
same,"viability, T/C",[10],23.7%
same,"viability, T/C","second compound 0.00949 µM, first compound 0.00316 µM",30.8%
same,"viability, T/C","second compound 0.00949 µM, first compound 0.01 µM",33.3%
same,"viability, T/C",[13],23.1%
same,"viability, T/C",[14],23%
same,"viability, T/C",[15],17.1%
same,"viability, T/C",[16],18%
same,"viability, T/C","second compound 0.03 µM, first compound 0.00316 µM",20.1%
same,"viability, T/C","second compound 0.03 µM, first compound 0.01 µM",21.2%
same,"viability, T/C",[19],15.7%
same,"viability, T/C",[20],13.3%
same,"viability, T/C",[21],13.7%
same,"viability, T/C",[22],14.1%
same,"viability, T/C","second compound 0.0949 µM, first compound 0.00316 µM",15.7%
same,"viability, T/C","second compound 0.0949 µM, first compound 0.01 µM",15.9%
same,"viability, T/C",[25],13.3%
same,"viability, T/C",[26],11.6%
same,"viability, T/C",[27],13.2%
same,"viability, T/C",[28],10.7%
same,"viability, T/C","second compound 0.3 µM, first compound 0.00316 µM",15.7%
same,"viability, T/C","second compound 0.3 µM, first compound 0.01 µM",16.1%
same,"viability, T/C",[31],16.1%
same,"viability, T/C",[32],13.2%
same,"viability, T/C",[33],12.6%
same,"viability, T/C",[34],10.2%
